From ChEMBL document CHEMBL3507680, “University of Dundee, Gates Library screen for HepG2 cell viability” come the findings set out here.

SMILES strings stand for the structures.

The series is described as follows: Human HepG2 cell viability assay in 384 well format. It is filed as toxicity, cell-based. Details: dose 125 nL, time 70.5 hour; concentration not given beside the values. Particulars: HepG2 cells, read-out: Inhibition.
Turning to `COc1ccc(CC(=O)N2CC[C@@H]3CN(C)S(=O)(=O)[C@@H]3CC2)cc1`, the cytotoxicity at 70.5 h is -5.74%.
To `COCC(=O)N1C[C@H]2CCC[C@@]2(COC)C1` belongs -5.02%; to `CCOCC(=O)N1C[C@H]2CCC[C@@]2(COC)C1`, -7.78%.
In the case of `Cn1ccnc1CN1CCC2(CC1)COCCN(c1ncccn1)C2` it was -5.62%; in that of `CCC(C)(C)C(=O)N1C[C@@H]2C[C@@H](c3nnc(C)[nH]3)O[C@@H]2C1`, -8.87%; in that of `COc1cccc(NC(=O)N2CC[C@@H]3CN(C)S(=O)(=O)[C@@H]3CC2)c1`, 20.9%.
For `COCCN(C)C(=O)c1cc2c(s1)CCN2C(=O)C1CC1`, the cytotoxicity at 70.5 h was determined as 2.55%.
In the case of `c1c(CN2CCOCC2)nc2n1CCN(CC1CC1)C2` it was -3.69%; in that of `Cn1ccc(C(=O)N2CCC3(CC2)CC(Nc2cnccn2)CO3)n1` (configuration not stated), -7%.
To `Cc1cccc(CN2CCC3(CC(C(=O)NCC(C)C)=NO3)C2)c1` (configuration not stated) belongs -5.06%; to `COCC(=O)N1CCCC2(CCN(c3ccsc3)C2=O)C1` (configuration not stated), 32.8%; to `N#Cc1ccc(C(=O)N2CC[C@H]3[C@@H]2CCC(=O)N3c2ccccc2)cc1`, -12%.
In the case of `Cn1cccc1C(=O)N1CCn2cc(CNC(=O)CC3CC3)nc2C1` it was -10.2%; in that of `COCCC(=O)N1CC[C@@H](N(C)C)[C@@H]1Cc1ccccc1`, -3.88%.
As for `O=C(c1ccncc1)N1CCCn2c(CN3CCCCC3)nnc2C1`, the cytotoxicity at 70.5 h was -8.6%.
For `COCC1CN(C(=O)c2ccnnc2)Cc2c1cnn2C` (configuration not stated), the cytotoxicity at 70.5 h was -1.23%.
In the case of `COc1cccc(CC(=O)N2CCc3ncnc(NC(C)C)c3CC2)c1` it was -14%; in that of `CN1C(=O)CC(c2cnn(C)c2)C12CCN(C(=O)C1CC=CC1)CC2` (configuration not stated), -6.39%; in that of `O=C(c1ccoc1)N1CC[C@@H]2O[C@H](COCc3ccccn3)CC[C@@H]21`, -11.6%.
In the case of `O=C(c1ccoc1)N1CCCn2cnc(COCC3CC3)c2C1` it was -10.8%; in that of `Cc1noc(C)c1CN1CC[C@H]2C[C@@H](c3nccs3)O[C@@H]2C1`, -14.7%; in that of `Cc1cc(CN2CC[C@H]3C[C@H](C)O[C@@H]3C2)no1`, -13.8%.
To `c1ccc(CN2C[C@@H]3OCCN(CC4CCCO4)[C@@H]3C2)nc1` (some centres not stated) belongs -9.93%.
For the molecule `COc1cc(N2C[C@@H]3COC[C@]3(COc3ccc(C#N)cn3)C2)ncn1`, the cytotoxicity at 70.5 h was determined as 7.01%.
To `CN1CCN(c2ncnc3c2c(C(=O)NC2CC2)c2ccccn23)CC1` belongs 5.64%; to `O=C(C1CCOC1)N1CCc2ncc(CNc3ccccn3)n2CC1` (configuration not stated), 0.605%.
`O=C(c1ccc(-c2cn[nH]c2)nc1)N1CCC(N2CCOCC2)CC1`: the cytotoxicity at 70.5 h is -3.67%.
To `CCc1ncc(CN2CCOC(Cc3cccc(F)c3)C2)cn1` (configuration not stated) belongs -9.07%; to `O[C@@]1(CNCCOc2ccccc2)CCCN2CCCC[C@@H]21`, 28%; to `CN(Cc1nc(Cc2cccc(C(F)(F)F)c2)no1)CC1CCCCO1` (configuration not stated), -11.5%.
Consider `COCCCN1C(=O)CC[C@H]2CN(c3ccc(C(N)=O)cn3)CC[C@H]21`, for which the cytotoxicity at 70.5 h is 4.03%.
In the case of `COc1ccc2[nH]cc(CCNC(=O)C3CCCN(C(C)=O)C3)c2c1` (configuration not stated) it was -9.73%.
With `Cn1cnnc1SCC(=O)NC1CC(=O)N(CCc2ccccc2)C1` (configuration not stated), the cytotoxicity at 70.5 h was -8.79%.
To `CCN(CC)C(=O)[C@@H]1C[C@@H](NC(=O)c2ccn(C(C)(C)C)c2)CN1C` belongs -4.81%.
To `Cc1cc(C)n(CCC(=O)N2CCCCC2c2nccs2)n1` (configuration not stated) belongs 11.9%; to `Cc1cc(CN(C)CC2(O)CCCN(CCC3CCCCC3)C2=O)no1` (configuration not stated), 48.7%; to `O=C(O)c1cc(-c2cc[nH]n2)cc(S(=O)(=O)N2CCCCCC2)c1`, -4.16%.
In the case of `Cc1nc(CN2CCN(C)C(=O)C23CCN(C(C)C)CC3)cs1` it was -9.48%; in that of `CCN1CCN(C)C(=O)C12CCN(Cc1csc(C)n1)CC2`, -8.47%.
As for `COc1cccc(CC(=O)N2CC[C@@H]3[C@H](CC2)N(C)CCS3(=O)=O)c1`, the cytotoxicity at 70.5 h is -2.21%.
In the case of `CN1CCN(CC2CC2)C(=O)C12CCN(C(=O)CC(F)(F)F)CC2`, the cytotoxicity at 70.5 h is -4.4%.
To `CNC(=O)[C@H]1C[C@@H]2CN(Cc3cccc(C)c3)C[C@H]1O2` belongs -6.34%.
Consider `O=C([C@H]1CC[C@@H]2[C@@H](CCN2C2CCOCC2)O1)N1CCOCC1`, for which the cytotoxicity at 70.5 h was -6.52%.
Turning to `O=C([C@H]1CC[C@@H]2[C@@H](CCN2C2CCCCC2)O1)N1CCOCC1`, the cytotoxicity at 70.5 h is -7.67%.
With `COC[C@@]12CCC[C@@H]1CN(C(=O)CN(C)C)C2`, the cytotoxicity at 70.5 h was -6.84%.
For `Cc1ccc(CN2CCc3onc(C(=O)NC(C)C)c3C2)o1`, the cytotoxicity at 70.5 h was -8.41%.
As to `COCC1COCCC12CCN(Cc1nccs1)CC2` (configuration not stated), the cytotoxicity at 70.5 h was -5.6%.
Take `C1CC(N2Cc3nnn(CC4CC4)c3C(COCC3CC3)C2)C1` (configuration not stated): the cytotoxicity at 70.5 h is -3.4%.
In the case of `Cc1noc(C)c1CN1CC[C@@H](OCC2CC2)[C@@H](Cc2ccccc2)C1` it was -4.91%; in that of `CCn1cc2c(n1)CN(CC1CC1)CC2COCC1CC1` (configuration not stated), -15%; in that of `O=C1COC2(CCN(Cc3ccoc3)CC2)CN1c1ccsc1`, -15.9%.
To `CCn1cc2c(n1)CN(Cc1nccs1)CC2COCC1CC1` (configuration not stated) belongs -11%; to `CC(=O)N1CCOCC2(CN(Cc3ccc(C)o3)CCO2)C1` (configuration not stated), 28.8%; to `O=C([C@@H]1C[C@@H]2CCN(CCc3ccccc3)C[C@H]2O1)N1CCCC1`, -3.84%.
In the case of `Cc1ccc(CN2CCCn3nnc(COCC4CC4)c3C2)s1` it was -1.67%; in that of `Cc1noc(C)c1CN1C[C@@H]2COC[C@H](C(=O)N3CCCCO3)[C@@H]2C1`, -13%.
On to `Cn1cc(CN2CCn3cc(CNC(=O)c4cccn4C)nc3C2)cn1`, for which the cytotoxicity at 70.5 h was -2.17%.
To `Cc1occc1C(=O)N1CCO[C@H]2[C@@H](Oc3ccccn3)CC[C@@H]21` belongs 4.46%.
To `Cc1ccc(CN2C[C@@H]3COC[C@H](C(=O)N4CCCCO4)[C@@H]3C2)o1` belongs -8.64%; to `O=C(c1cscn1)N1CC[C@]2(C[C@@H](OCCN3CCCC3)CO2)C1`, -6.54%.
In the case of `Cc1cccc(COC[C@H]2CC[C@H]3[C@H](CCN3C(=O)CC3CC3)O2)n1` it was -6.89%.
Consider `CCN1C(=O)CCC12CCCN(Cc1nccs1)CC2` (configuration not stated), for which the cytotoxicity at 70.5 h is -8.57%.
To `O=C1[C@H]2CN(Cc3nccs3)C[C@H]2CN1c1ccsc1` belongs -1.21%; to `CO[C@H]1CN(C(=O)c2ccccn2)[C@@H]2CCCO[C@H]12`, -14.9%.
To `Cc1ccsc1C(=O)N1C[C@@H]2CN(Cc3ccoc3)CCO[C@@H]2C1` belongs -1.7%; to `CCOCC1CN(Cc2ccc(OC)cc2)Cc2nn(C)cc21` (configuration not stated), 25.5%; to `Cn1cc(N2CC3(COCCN(Cc4ccsc4)C3)OCC2=O)cn1` (configuration not stated), 22.6%.
In the case of `O=C1COC2(COCCN(Cc3ccsc3)C2)CN1c1ccc(F)cc1` (configuration not stated) it was -2.28%; in that of `Fc1cnc(N2CCOC3(CCN(Cc4cccs4)CC3)C2)nc1`, -6.76%; in that of `Cc1ccc(CN2CCc3onc(C(=O)NCCN(C)C)c3C2)o1`, -8.28%.
`COCCN1C[C@@H]2COC[C@@H](CC(=O)NCc3cccnc3)[C@@H]2C1`: the cytotoxicity at 70.5 h was -16.6%.
In the case of `CCOC1COC2(CCN(Cc3cccnc3OC)CC2)C1` (configuration not stated), the cytotoxicity at 70.5 h is -1.38%.
In the case of `c1c(CN2CCCC2)nc2n1CCN(C1CCOCC1)C2` it was -0.565%.
In the case of `O=C(N1CCOCC1)[C@@]12CCO[C@@H]1CCN(Cc1ccncc1)C2` it was -3.44%; in that of `CN1CCOCC12CCN(Cc1ccoc1)CC2`, -13.2%.
In the case of `Cc1ccc2c(n1)N(CCN(C)C)CCN(C(=O)c1ccc[nH]1)C2` it was 0.599%.
Turning to `CN(Cc1cn2c(n1)CN(CC1CC1)CC2)Cc1ccco1`, the cytotoxicity at 70.5 h is -11.8%.
In the case of `CN(Cc1cn2c(n1)CN(c1ncc(F)cn1)CC2)Cc1ccco1` it was -8.98%; in that of `O=C(NC[C@]12COC[C@H]1CN(Cc1cccnc1)C2)c1ccno1`, -14.7%.
For `c1cncc(CN2CC[C@H]3O[C@@H](COCC4CC4)CC[C@H]32)c1`, the cytotoxicity at 70.5 h is -5.15%.
With `c1cncc(CN2CCc3ncnc(C4CCOC4)c3CC2)c1` (configuration not stated), the cytotoxicity at 70.5 h amounted to 22.8%.
`COCCN1C[C@@H]2CCCO[C@@H]2[C@H](N(C)Cc2ccco2)C1`: the cytotoxicity at 70.5 h was -2.22%.
In the case of `Cn1cc(C(=O)N2CC[C@@H]3[C@@H]2CCN3Cc2cccnc2)cn1` it was -14.5%.
In the case of `c1cnc(N2CCC3(CCN(Cc4ccncc4)CC3)CC2)nc1` it was -15.7%; in that of `COc1cc(N2C[C@@H]3COC[C@]3(COCc3cccc(C)n3)C2)ncn1`, -0.577%.
In the case of `COc1cccc(CN2C[C@@H]3COC[C@]3(COCc3ccncc3)C2)c1` it was 5.79%; in that of `CCc1ccc(CN2CCN(C)c3ncccc3C2)o1`, 24.1%; in that of `Cc1ccc2c(n1)N(Cc1cccnc1)CCN(C(=O)C1CCC1)C2`, -12.9%.
Turning to `O=C(c1cccnc1)N1CCn2nnc(COc3cccnc3)c2C1`, the cytotoxicity at 70.5 h is -3.89%.
To `CC(C)N1CC[C@H]2[C@H](C[C@@H](Cn3cccn3)N2c2nccs2)C1` belongs -4.28%.
In the case of `CN(C)CCN1CCOCC2(C1)CN(Cc1ccsc1)CCO2` (configuration not stated) it was -9.68%.
To `Cc1ccc(N2CCO[C@H]3CN(Cc4ccncc4)C[C@H]32)nn1` belongs -8.56%.
